In patent publication US7998713B2, “Treatment of biomass to obtain ethanol” (E. I. du Pont de Nemours and Company, priority 2005, dated 2011):

Test system: Z. mobilis strain 8b
Experiment: Effect of acetamide and acetic acid on Zymomonas growth (toxicity test in shake flasks)
Assay type: cell-based, Zymomonas mobilis
Conditions: pH 6.0, 30° C., 150 rpm, FIG. 1
Source text: Fermentation medium was composed of 10 g/L yeast extract, 2 g/L KH2PO4, 70 g/L glucose, 40 g/L xylose and 0.1 M MES buffer.

[1] = medium supplemented with 6 g/L acetamide vs unsupplemented control
[2] = medium supplemented with 7.2 g/L acetic acid vs unsupplemented control

| SMILES | final density of Z. mobilis [1] | growth rate of Z. mobilis [1] | cell yield (as measured by dry cell mass) [2] | growth rate of Z. mobilis [2] |
| --- | --- | --- | --- | --- |
| CC(N)=O [acetamide] | no influence | no influence | – | – |
| CC(=O)O [acetic acid] | – | – | lower cell yield | reduced growth rate |
